IC50 data for 11 compounds are collected here from patent US20250215006A1, “TRICYCLIC COMPOUNDS AS INHIBITORS OF WRN” (Incyte Corporation, priority 2023, published 2025).

Test [1] addresses T1, WRN (Homo sapiens, UniProt Q14191).
T1 construct: A His-tagged construct of WRN (AA S2-S1235) was produced and used for the ATPase assay; His; made in house; host or cells: Sf9 insect cells (baculovirus, pFastBac1)
Description: WRN ATPase activity assay (ADP-Glo). The following applies: 1-hr pre-incubation with enzyme; 100 μM ATP, 25 nM forked dsDNA, 1 nM WRN; geometric mean of at least 2 replicates. Type of test: biochemical. The protocol: Compounds of the Examples were tested for WRN ATPase activity. WRN ATPase activity catalyzes ATP hydrolysis to produce ADP and phosphate. DNA encoding the target protein, 6×HIS-TEV-WRN-517-945, was produced, cloned and transfected as detailed in Example D. The amount of ADP produced was measured using ADP-Glo™ Kinase Assay kit from Promega Corporation in a Greiner white regular volume 384 wells assay plate (Greiner #781075). Data was normalized to a standard curve generated using various ADP concentrations and the corresponding luminescent signal intensities at each concentration. The assay conditions were optimized for enzyme concentration (WRN), substrate concentrations (ATP & dsDNA), and the linearity of the ATPase reaction, in the following assay buffer: 50 mM Tris-HCl, pH-7.5, 2 mM MgCl2, 50 mM NaCl, 1 mM EGTA, 0.01% P-20, 0.05% BSA, and 2 mM DTT prepared with nuclease free water.
A serial dilution (1:3 scheme) of the compounds were prepared in neat DMSO, with 100 nL of the compounds dispensed in the 384 wells assay plate. An 1-hr pre-incubation of the compounds with enzyme was included. A His-tagged construct of WRN (AA S2-S1235) was produced and used for the ATPase assay. Maximum inhibition control wells were set up with the addition of only assay buffer, and no inhibition control wells were set up with neat DMSO without test compounds. The reaction was initiated by addition of 5 μL substrate mix (200 μM ultrapure ATP, and 50 nM dsDNA prepared in assay buffer) and incubated at 25° C. for 35 min. A forked dsDNA oligomer substrate was prepared by annealing equal amounts of oligo GPat-1 ([BHQ2][…]) and oligo GPat-2 ([…][TAM]) and was used as dsDNA substrate for WRN ATPase assay. A typical ATPase reaction consists of 25 nM forked dsDNA, 100 μM ATP, and 1 nM WRN prepared in assay buffer. The WRN ATPase reaction was stopped by the addition of 5 μL of ADP-Glo Reagent from ADP-Glo™ Kinase Assay kit and incubated for 40 min to deplete the unreacted ATP. Afterwards, 5 μL of Kinase Detection Reagent from the ADP-Glo™ Kinase Assay kit was added and incubated for 1 hr for the development of luminescence signal.
Luminesce signals were measured on BMG PHERAstar FSX using luminescence protocol. Data analysis was carried out using Genedata software following % of control normalization. Fitting parameters include dose response IC50, Hill slope (n), maximum inhibition (S∞), and minimum inhibition (S0). The reported IC50 values for compounds in this invention are the geometric means of at least 2 independent replicates.
For orientation: ADP-Glo turns the ADP formed in a reaction into a luminescent signal.

In test [2] the target is T1, WRN. Description: WRN Helicase activity assay (fluorescence DNA unwinding). Type of test: biochemical. The following applies: 1-hr pre-incubation with enzyme; 100 μM ATP, 25 nM forked dsDNA, 1 nM WRN; geometric mean of at least 2 replicates. The protocol: Compounds of the examples were tested for WRN helicase activity. DNA encoding the target protein, 6×HIS-TEV-WRN-517-945, was produced, cloned and transfected as detailed in Example D. To determine the inhibitory properties of the compounds, a 384 wells plate-based Helicase assay was set up to measure the extent of DNA unwinding (Helicase) activity of WRN. The WRN Helicase assay was designed to measure increase in fluorescence signal using a fluorescence based, donor-quencher paired forked dsDNA oligomer substrate (custom synthesis from Sigma-Aldrich) prepared by annealing equal amounts of oligo GPat-1 ([BHQ2][…]) and oligo GPat-2 ([…][TAM]). Continuous measurement of fluorescent signal was used to optimize the buffer conditions, concentration of enzyme (WRN), concentration of substrates (ATP & dsDNA), and the linearity of the Helicase reaction. All solutions were prepared in the following assay buffer: 50 mM Tris-HCl, pH-7.5, 2 mM MgCl2, 50 mM NaCl, 1 mM EGTA, 0.01% P-20, 0.05% BSA, and 2 mM DTT prepared with nuclease free water.
A serial dilution (1:3 scheme) of the compounds was prepared in neat DMSO and 100 nL of the compounds was dispensed in the Greiner black low volume (Greiner #784076) 384 wells assay plate. An 1-hr pre-incubation of the compounds with enzyme was included. A His-tagged construct of WRN (AA S2-S1235) was produced and used for the ATPase assay. Maximum inhibition control wells were set up with the addition of only assay buffer, and no inhibition control wells were set up with neat DMSO without test compounds. The reaction was initiated by addition of 5 μL substrate mix (200 μM ultrapure ATP, and 50 nM dsDNA prepared in assay buffer) and incubated at 25° C. for 35 min. A typical Helicase reaction consists of 25 nM forked dsDNA, 100 μM ATP, and 1 nM WRN prepared in assay buffer. The WRN Helicase reaction was quenched by the addition of 5 μL ‘STOP’ solution containing 100 mM EDTA (final EDTA concentration 33.33 mM) prepared in assay buffer. The plates were read on BMG PHERAstar FSX using 540/590 module to measure an increase of fluorescence. Data analysis was carried out using the Genedata software following % of control normalization. Fitting parameters include dose response IC50, Hill slope (n), maximum inhibition (S∞), and minimum inhibition (S0). The reported IC50 values for compounds in this invention are the geometric means of at least 2 independent replicates.

pIC50: −log10 of the molar value. Bounds are passed on as bounds.

What is called pIC50 is the IC50 on a negative log10 scale, so that one unit is a factor of ten. A higher pIC50 goes with a low IC50.

T1 sequence (Q14191 2-1235): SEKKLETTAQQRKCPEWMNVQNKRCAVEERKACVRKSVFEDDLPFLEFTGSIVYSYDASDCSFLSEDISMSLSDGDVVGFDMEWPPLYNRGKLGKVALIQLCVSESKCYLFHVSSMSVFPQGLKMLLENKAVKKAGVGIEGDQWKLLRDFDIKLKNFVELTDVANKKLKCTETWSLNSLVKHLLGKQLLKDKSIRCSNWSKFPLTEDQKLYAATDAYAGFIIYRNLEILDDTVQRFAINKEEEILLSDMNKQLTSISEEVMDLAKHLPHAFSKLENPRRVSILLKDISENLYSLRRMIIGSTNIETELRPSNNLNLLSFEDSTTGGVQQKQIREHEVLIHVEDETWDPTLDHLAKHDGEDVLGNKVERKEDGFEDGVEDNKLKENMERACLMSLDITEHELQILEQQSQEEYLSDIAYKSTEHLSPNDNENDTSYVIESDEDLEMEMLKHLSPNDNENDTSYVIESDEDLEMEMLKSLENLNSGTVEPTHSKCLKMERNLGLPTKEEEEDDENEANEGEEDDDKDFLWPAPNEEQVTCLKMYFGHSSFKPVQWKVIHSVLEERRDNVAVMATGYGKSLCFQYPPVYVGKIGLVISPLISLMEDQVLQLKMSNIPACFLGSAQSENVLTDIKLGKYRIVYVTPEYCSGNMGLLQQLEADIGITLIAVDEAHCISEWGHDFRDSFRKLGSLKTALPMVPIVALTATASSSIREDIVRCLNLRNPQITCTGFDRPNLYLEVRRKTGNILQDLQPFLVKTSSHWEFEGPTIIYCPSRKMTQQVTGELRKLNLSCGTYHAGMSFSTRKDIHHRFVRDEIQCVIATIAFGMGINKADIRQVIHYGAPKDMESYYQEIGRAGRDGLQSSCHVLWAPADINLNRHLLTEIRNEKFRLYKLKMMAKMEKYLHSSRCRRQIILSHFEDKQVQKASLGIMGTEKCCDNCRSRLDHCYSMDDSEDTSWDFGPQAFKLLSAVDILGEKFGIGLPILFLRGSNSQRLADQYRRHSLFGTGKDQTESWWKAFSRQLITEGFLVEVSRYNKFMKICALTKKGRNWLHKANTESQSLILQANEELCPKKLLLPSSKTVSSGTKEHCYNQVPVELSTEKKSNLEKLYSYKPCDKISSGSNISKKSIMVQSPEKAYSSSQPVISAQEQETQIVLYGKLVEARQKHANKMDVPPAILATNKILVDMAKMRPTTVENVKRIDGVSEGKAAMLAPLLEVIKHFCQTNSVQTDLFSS

Take `C=CC(=O)Nc1ccc(C(=O)NCCO)cc1-c1c(CC)nc2n(CC(=O)Nc3ccc(F)cc3)c3ccccc3n2c1=O` [Example 12, 4-Acrylamido-3-(2-ethyl-10-(2-((4-fluorophenyl)amino)-2-oxoethyl)-4-oxo-4,10-dihydrobenzo[4,5]imidazo[1,2-a]pyrimidin-3-yl)-N-(2-hydroxyethyl) benzamide]: the negative logarithm of the IC50 (pIC50) against WRN [1] and against WRN [2] was 6.30 to 7.00 throughout.

With `C=CS(=O)(=O)Nc1ccccc1-c1c(CC)nc2n(CC(=O)Nc3ccc(C(F)(F)F)cc3)c3ccccc3n2c1=O` [Example 21, 2-(2-Ethyl-4-oxo-3-(2-(vinylsulfonamido)phenyl)benzo[4,5]imidazo[1,2-a]pyrimidin-10(4H)-yl)-N-(4-(trifluoromethyl)phenyl)acetamide], the pIC50 against WRN [1] and against WRN [2] was > 7.00 each time.

In the case of `C=CS(=O)(=O)Nc1ccccc1-c1c(CC)nc2n(CC(=O)Nc3ccc(C(F)(F)F)cc3)c3c(n2c1=O)CCCC3` [Example 23, 2-(2-Ethyl-4-oxo-3-(2-(vinylsulfonamido)phenyl)-6,7,8,9-tetrahydrobenzo[4,5]imidazo[1,2-a]pyrimidin-10(4H)-yl)-N-(4-(trifluoromethyl)phenyl)acetamide], the negative-log IC50 (pIC50) against WRN [1] and on WRN [2] was > 7.00 in each case.

`C=CS(=O)(=O)Nc1ccccc1-c1c(CC)c(C#N)c2n(CC(=O)Nc3ccc(C(F)(F)F)cc3)c3ccccc3n2c1=O` [Example 24, 2-(4-Cyano-3-ethyl-1-oxo-2-(2-(vinylsulfonamido)phenyl)benzo[4,5]imidazo[1,2-a]pyridin-5(1H)-yl)-N-(4-(trifluoromethyl)phenyl)acetamide]: the negative-log IC50 (pIC50) against WRN [1] and at WRN [2] was 6.30 to 7.00 throughout.

On to `C=CC(=O)Nc1ccccc1-c1c(CC)nc2n(CC(=O)Nc3cccc(C(F)(F)F)c3)c3ccccc3n2c1=O` [Example 7, N-(2-(2-Ethyl-4-oxo-10-(2-oxo-2-((3-(trifluoromethyl)phenyl)amino)ethyl)-4,10-dihydrobenzo[4,5]imidazo[1,2-a]pyrimidin-3-yl)phenyl)acrylamide], for which the pIC50 against WRN [1] and on WRN [2] was 6.30 to 7.00 each time.

With `C=CC(=O)Nc1ccccc1-c1c(CC)nc2n(CC(=O)Nc3ccc(F)c(F)c3)c3cc(OC)ccc3n2c1=O` [Example 17, N-(2-(10-(2-((3,4-Difluorophenyl)amino)-2-oxoethyl)-2-ethyl-8-methoxy-4-oxo-4,10-dihydrobenzo[4,5]imidazo[1,2-a]pyrimidin-3-yl)phenyl)acrylamide], the pIC50 at WRN [1] and on WRN [2] was 6.30 to 7.00 each time.

As for `C=CC(=O)Nc1ccc(C(=O)OC)cc1-c1c(CC)nc2n(CC(=O)Nc3ccc(F)cc3)c3ccccc3n2c1=O` [Example 11, Methyl 4-acrylamido-3-(2-ethyl-10-(2-((4-fluorophenyl)amino)-2-oxoethyl)-4-oxo-4,10-dihydrobenzo[4,5]imidazo[1,2-a]pyrimidin-3-yl)benzoate], the pIC50 at WRN [1] and against WRN [2] was > 7.00 in each case.

On to `C=CC(=O)Nc1ccccc1-c1c(CC)nc2n(CC(=O)Nc3ccc(C(F)(F)F)cc3Cl)c3ccccc3n2c1=O` [Example 4, N-(2-(10-(2-((2-Chloro-4-(trifluoromethyl)phenyl)amino)-2-oxoethyl)-2-ethyl-4-oxo-4,10-dihydrobenzo[4,5]imidazo[1,2-a]pyrimidin-3-yl)phenyl)acrylamide], for which the negative-log IC50 (pIC50) against WRN [1] and at WRN [2] was > 7.00 throughout.

Regarding `C=CC(=O)Nc1ccccc1-c1c(CC)nc2n(CC(=O)Nc3ccc(C(F)(F)F)cc3)c3ncccc3n2c1=O` [Example 20, N-(2-(8-Ethyl-6-oxo-10-(2-oxo-2-((4-(trifluoromethyl)phenyl)amino)ethyl)-6,10-dihydropyrido[2′,3′: 4,5]imidazo[1,2-a]pyrimidin-7-yl)phenyl)acrylamide], the negative logarithm of the IC50 (pIC50) at WRN [1] and against WRN [2] was 6.30 to 7.00 in each case.

As to `C=CC(=O)Nc1ccccc1-c1c(CC)c(C#N)c2n(CC(=O)Nc3ccc(C(F)(F)F)cc3)c3ccccc3n2c1=O` [Example 25, N-(2-(4-Cyano-3-ethyl-1-oxo-5-(2-oxo-2-((4-(trifluoromethyl)phenyl)amino)ethyl)-1,5-dihydrobenzo[4,5]imidazo[1,2-a]pyridin-2-yl)phenyl)acrylamide], the negative-log IC50 (pIC50) against WRN [1] and on WRN [2] was 6.30 to 7.00 in each case.

For `C=CC(=O)Nc1ccccc1-c1c(CC)nc2n(CC(=O)Nc3ccc(C(F)(F)F)cc3)c3c(OC)cccc3n2c1=O` [Example 19, N-(2-(2-Ethyl-9-methoxy-4-oxo-10-(2-oxo-2-((4-(trifluoromethyl)phenyl)amino)ethyl)-4,10-dihydrobenzo[4,5]imidazo[1,2-a]pyrimidin-3-yl)phenyl)acrylamide], the negative-log IC50 (pIC50) against WRN [1] and against WRN [2] was > 7.00 throughout.
